What was measured:
3T3-L1 adipocytes [1] = assay: Adipogenesis in 3T3-L1 adipocytes cultured with inhibitors of intracellular signaling pathways (AdipoRed); assay type: cell-based, mouse; conditions: for Lipogenesis/adipogenesis with the inhibitor alone: added two days after differentiation, cultured two days, genistein 1 or 10 μM, Wortmannin 10 or 100 nM, PD98059 1 or 10 μM, Bay 11-7082 1 or 10 nM, FIG. 6A-D
Experimental: (§1) In yet another experiment, to search for the involvement of intracellular signaling factors, the culture fluid was substituted with a culture fluid containing DMEM, which contained 10% FBS and insulin (10 μg/ml), and a vehicle (1% ethanol) or DHMBA (1 or 10 μM) two days after the differentiation culture. The cells were cultured for another two days in a culture fluid containing signaling inhibitory factors, such as genistein (1 or 10 μM), Wortmannin (10 or 100 nM), PD98059 (1 or 10 μM), or Bay 11-7082 (1 or 10 nM). After the cell culture, the amount of intracellular lipid (triglyceride) formation was quantified using AdipoRed Assay Reagent (Lonza, Walkersville, MD, USA) [19 to 21]. Fluorescence was measured at an excitation of 485 nm and an emission of 570 nm using a 96-well plate reader (μQuant, Bio-Tek Instruments).

3T3-L1 preadipocytes [2] = assay: Number of cells in the differentiation process of 3T3-L1 preadipocytes; assay type: cell-based, mouse; conditions: DHMBA 1 or 10 μM
Experimental: After the culture, adhering cells were separated from each well by adding an aseptic solution containing 0.05% trypsin and EDTA (0.1 ml per well) in PBS (Thermo Fisher Scientific, Waltham, MA, USA) not containing Ca^2+/Mg^2+ and incubating the cells for two minutes. Afterward, 0.9 ml of DMEM containing 10% FBS was added to each well to prepare cell suspensions. In order to measure the number of living cells, a medium (0.1 ml) containing suspension cells was mixed with 0.1 ml of 0.5% trypan blue staining solution. The living cells were counted under a microscope (Olympus MTV-3) using a cell counter (Line Seiki H-102P, Tokyo, Japan) and a hemocytometer (Sigma-Aldrich, St. Louis, Missouri). Two counts were averaged in each measurement. The number of cells was shown as the number per well of a culture plate. […]
First, to quantify the effect of DHMBA on the number of cells, a vehicle (1% ethanol as the final concentration) or DHMBA (1 or 10 μM) was added to the differentiation-inducing culture fluid on day 0 of differentiation starting culture or after two days. After zero to two days of the differentiation culture or after two to four days of the culture, the number of cells adhered to a culture dish was measured as described in the previous section.

MAPK = assay: Western blotting, MAPK level in 3T3-L1 adipocytes; assay type: cell-based, mouse; conditions: DHMBA 10 μM, day 2 to 4 of differentiation; FIG. 7
Experimental: (§2) 3T3-L1 preadipocytes (1×10^6 cells/100 mm dish used, in 10 ml of culture fluid) were cultured for three days, at which point they reached sub-confluence, in DMEM containing 10% BCS and 1% P/S. Then, the cells were cultured for two days in a DMEM differentiation culture fluid containing 10% FBS, 1% P/S, 0.5 mM IBMX, and 1 μM dexamethasone. […] After the culture, the culture dish was washed three times with cold PBS (10 ml) to eliminate floating cells and dead cells, and adhering cells were scraped using a cell lysis solution containing protease and protein phosphatase inhibitors (Roche Diagnostics, Indianapolis, IN, USA). Next, the cell lysates were centrifuged for 10 minutes at 17,000×g at 4° C. The concentration of proteins in the supernatant was quantified using Bio-Rad Protein Assay Dye (Bio-Rad Laboratories, Inc., Hercules, CA, USA) with bovine serum albumin as a standard. The extracted protein samples were stored at −80° C. until they were used. […]
(§3) After the incubation, the PVDF membrane was incubated at room temperature for 60 minutes in a horseradish peroxidase-conjugated secondary antibody (Santa Cruz Biotechnology, Inc., mouse sc-2005 or rabbit sc-2305; 1:1,000 dilution). Protein bands transferred to the PVDF membrane were detected on an X-ray film using a chemiluminescent substrate (catalog No. 34577, Thermo Scientific, Rockford, IL, USA). […]

PPARγ = assay: Western blotting, PPARγ level in 3T3-L1 adipocytes; assay type: cell-based, mouse; conditions: DHMBA 10 μM, day 2 to 4 of differentiation; FIG. 7
Experimental: as §2, §3

mTOR = assay: Western blotting, mTOR level in 3T3-L1 adipocytes; assay type: cell-based, mouse; conditions: DHMBA 10 μM, day 2 to 4 of differentiation; FIG. 7
Experimental: as §2, §3

3T3-L1 adipocytes [3] = assay: Lipid accumulation in 3T3-L1 adipocytes (Oil Red O staining); assay type: cell-based, mouse; conditions: DHMBA 0.1, 1, 10 or 100 μM on day 0 and after two days of differentiation culture
Experimental: In order to understand the influence of DHMBA on the differentiation of 3T3-L1 preadipocytes, 3T3-L1 preadipocytes (5×10^4 cells/ml per well of a 24-well plate) were cultured for three days, at which point they reached sub-confluence, in 10% bovine calf serum (BCS). After the cells reached sub-confluence (on day 0), the culture fluid was changed to a DMEM differentiation-inducing culture fluid containing 10% FBS, 1% P/S, 0.5 mM IBMX, 1 μM dexamethasone, and insulin (10 μg/ml), and the cells were cultured for another two days. […]
In an additional experiment to understand the effect of DHMBA on the content of lipids in 3T3-L1 adipocytes, a vehicle (1% ethanol as the final concentration) or DHMBA (0.1, 1, 10, or 100 μM) was included in the differentiation-inducing culture fluid to culture the cells from day 0 of the differentiation-inducing culture to four days later. In order to quantify the lipid content (triglycerides) after the cell culture, the cells in the 24-well plate were gently washed twice with PBS and fixed with 4% formaldehyde dissolved in PBS for 30 minutes. […] Furthermore, in order to quantify the lipid content, the Oil Red stain was extracted with isopropanol. […] The eluate was used to measure the absorbance at 510 nm with a spectrophotometer (μQuant, Bio-Tek Instruments).

C/EBPα = assay: Western blotting, C/EBPα level in 3T3-L1 adipocytes; assay type: cell-based, mouse; conditions: DHMBA 10 μM, day 2 to 4 of differentiation; FIG. 7
Experimental: as §2, §3

3T3-L1 adipocytes [4] = assay: Adipogenesis in 3T3-L1 adipocytes (AdipoRed Assay Reagent); assay type: cell-based, mouse
Experimental: 3T3-L1 preadipocytes (10^4 cells/0.2 ml per well of a 96-well plate) were cultured for three days, at which point they reached sub-confluence, in DMEM containing 10% BCS and 1% P/S. After the sub-confluence (on day 0), the cells were cultured in a differentiation-inducing culture fluid containing 10% FBS, 1% P/S, 0.5 mM IBMX, and 1 μM dexamethasone with the inclusion of a vehicle (1% ethanol as the final concentration) or DHMBA (0.1, 1, 10, or 100 μM). Two days later, the culture fluid was replaced with a DMEM culture fluid containing insulin (10 μg/ml) without containing 10% FBS or DHMBA, and then, the cells were cultured for another two days.
In another experiment, the cells were cultured in a differentiation culture fluid not containing DHMBA on day 0 of differentiation-inducing culture. Two days later, the culture fluid was replaced with a DMEM culture fluid containing 10% FBS and insulin (10 μg/ml) that contained any of a vehicle (1% ethanol as the final concentration) and DHMBA (0.1, 1, 10, or 100 μM), and then, the cells were cultured for another two days.
as §1

3T3-L1 preadipocytes [5] = assay: Cell proliferation of 3T3-L1 preadipocytes (living cell count); assay type: cell-based, mouse
Experimental: […] Furthermore, in an experiment to measure cell proliferation, 3T3-L1 preadipocytes (1×10^5/ml per well of a 24-well plate) were cultured for three days in a culture fluid containing a vehicle (1% ethanol as the final concentration) or DHMBA (0.1, 1, 10, 100, or 1000 μM).
(§4) After the culture, adhering cells were separated from each well by adding an aseptic solution containing 0.05% trypsin and EDTA (0.1 ml per well) in PBS (Thermo Fisher Scientific, Waltham, MA, USA) not containing Ca^2+/Mg^2+ and incubating the cells for two minutes. Afterward, 0.9 ml of DMEM containing 10% FBS was added to each well to prepare cell suspensions. In order to measure the number of living cells, a medium (0.1 ml) containing suspension cells was mixed with 0.1 ml of 0.5% trypan blue staining solution. The living cells were counted under a microscope (Olympus MTV-3) using a cell counter (Line Seiki H-102P, Tokyo, Japan) and a hemocytometer (Sigma-Aldrich, St. Louis, Missouri). Two counts were averaged in each measurement. The number of cells was shown as the number per well of a culture plate.

3T3-L1 preadipocytes [6] = assay: Cell death of sub-confluent 3T3-L1 preadipocytes (cell count); assay type: cell-based, mouse; conditions: sub-confluent cells cultured another two days; DHMBA 0.1-1000 μM tested, effect at 1000 μM; FIG. 2C
Experimental: In an experiment to measure cell death, 3T3-L1 preadipocytes (1×10^5/ml per well of a 24-well plate) were cultured for three days in a DMEM culture fluid containing 10% BCS and 1% P/S. The cells that reached sub-confluence were cultured for another 48 hours in the presence of a vehicle (1% ethanol as the final concentration) or DHMBA (0.1, 1, 10, 100, or 1000 μM) to examine the variation in the number of cells.
as §4

Akt = assay: Western blotting, Akt level in 3T3-L1 adipocytes; assay type: cell-based, mouse; conditions: DHMBA 10 μM, day 2 to 4 of differentiation; FIG. 7
Experimental: as §2, §3

PI3 kinase 100α = assay: Western blotting, PI3 kinase 100α level in 3T3-L1 adipocytes; assay type: cell-based, mouse; conditions: DHMBA 10 μM, day 2 to 4 of differentiation; FIG. 7
Experimental: as §2, §3

phosphorylated MAPK = assay: Western blotting, phosphorylated MAPK level in 3T3-L1 adipocytes; assay type: cell-based, mouse; conditions: DHMBA 10 μM, day 2 to 4 of differentiation; FIG. 7
Experimental: as §2, §3

[7] = tested on: metastatic prostate cancer cells; conditions: earlier report, no details given; cited from earlier work
NF-κB p65 = assay: Western blotting, NF-κB p65 level in 3T3-L1 adipocytes; assay type: cell-based, mouse; conditions: DHMBA 10 μM, day 2 to 4 of differentiation; FIG. 7
Experimental: as §2, §3

In the case of COC[C@H]1OC(=O)c2coc3c2[C@@]1(C)C1=C(C3=O)[C@@H]2CCC(=O)[C@@]2(C)C[C@H]1OC(C)=O [Wortmannin, reference compound], the “Lipogenesis/adipogenesis with the inhibitor alone” value (3T3-L1 adipocytes [1]) is reported as “inhibited”.

For COc1c(O)cc(CO)cc1O [DHMBA, 3,5-dihydroxy-4-methoxybenzyl alcohol], the “Number of cells, differentiation day 2 to 4” value (3T3-L1 preadipocytes [2]; culture fluid containing insulin (10 μg/ml), another two days, FIG. 3C) was “not varied”, the “Number of cells, differentiation day 0 to 2” value (3T3-L1 preadipocytes [2]; differentiation-inducing culture fluid (IBMX, dexamethasone, insulin), two days, FIG. 3B) was “not varied” and the MAPK protein level (MAPK) was “reduction”. The PPARγ protein level (PPARγ) was “reduced”, the mTOR protein level (mTOR) was “reduction” and the “Lipid accumulation (Oil Red O stained images)” value (3T3-L1 adipocytes [3]; FIG. 4A) was “reduced lipid accumulation”. For the same compound, the “Lipid (triglyceride) content in the cells (absorbance at 510 nm)” value (3T3-L1 adipocytes [3]; FIG. 4B) was “decrease was confirmed”, the C/EBPα protein level (C/EBPα) was “reduced” and the “Adipogenesis (intracellular lipid formation), DHMBA zero to four days after the differentiation” value (3T3-L1 adipocytes [4]; DHMBA 1, 10 or 100 μM (0.1 μM also tested), FIG. 5A) was “suppressed adipogenesis”. For the same compound, the “Adipogenesis (intracellular lipid formation), DHMBA zero to two days after the differentiation” value (3T3-L1 adipocytes [4]; DHMBA 1, 10 or 100 μM, FIG. 5B) was “suppression was also observed”, the “Adipogenesis (intracellular lipid formation), DHMBA two to four days after the differentiation” value (3T3-L1 adipocytes [4]; DHMBA 1, 10 or 100 μM, late stage, FIG. 5C) was “suppression was also observed” and the “Cell proliferation (number of cells), time course” value (3T3-L1 preadipocytes [5]; DHMBA 10 μM, cultured one to five days, effect at three to five days, FIG. 2A) was “suppressed”. For the same compound, the “Cell proliferation (number of cells), concentration dependence” value (3T3-L1 preadipocytes [5]; cultured three days, DHMBA 0.1, 1, 10, 100 or 1000 μM, FIG. 2B) was “suppressed at concentrations ranging from 1 μM to 1000 μM”, the “Cell death (number of cells)” value (3T3-L1 preadipocytes [6]) was “reduced” and the Akt protein level (Akt) was “reduction”. The “PI3 kinase 100α protein level” value (PI3 kinase 100α) was “reduction”, the “Phosphorylated MAPK protein level” value (phosphorylated MAPK) was “reduction” and the “Inhibition of adipogenesis in the presence of Bay 11-7082” value (3T3-L1 adipocytes [1]; DHMBA 1 or 10 μM with Bay 11-7082 1 or 10 nM, FIG. 6D) was “further enhanced”. The “Inhibition of adipogenesis in the presence of PD98059” value (3T3-L1 adipocytes [1]; DHMBA 1 or 10 μM with PD98059 1 or 10 μM, FIG. 6C) was “further enhanced”, the “Inhibition of adipogenesis in the presence of Wortmannin” value (3T3-L1 adipocytes [1]; DHMBA 1 or 10 μM with Wortmannin 10 or 100 nM, FIG. 6B) was “further enhanced” and the “Adipogenesis in the presence of genistein” value (3T3-L1 adipocytes [1]; DHMBA 1 or 10 μM with genistein 1 or 10 μM, FIG. 6A) was “inhibited adipogenesis”. The “Proliferation of metastatic prostate cancer cells” value [7] was “suppress the proliferation” and the “NF-κB p65 protein level” value (NF-κB p65) was “reduced”.

For COc1cccc(-c2cc(=O)c3ccccc3o2)c1N [PD98059, reference compound], the “Lipogenesis/adipogenesis with the inhibitor alone” value (3T3-L1 adipocytes [1]) was “inhibited”.

In the case of Cc1ccc(S(=O)(=O)/C=C/C#N)cc1 [Bay 11-7082, reference compound], the “Lipogenesis/adipogenesis with the inhibitor alone” value (3T3-L1 adipocytes [1]) is reported as “inhibited”.

For O=c1c(-c2ccc(O)cc2)coc2cc(O)cc(O)c12 [genistein, reference compound], the “Lipogenesis/adipogenesis with the inhibitor alone” value (3T3-L1 adipocytes [1]) was “not altered”.
